Assay results from US6569878B1, “Substituted 4-amino-thiazol-2-yl compounds as cyclin-dependent kinase inhibitors” (Agouron Pharmaceuticals Inc., priority 1997, dated 2003).
Where two headings read alike, the source gives them in different places.

Key:
[1] = biological target: T1, CDK2/cyclin A (Homo sapiens, UniProt P24941); assay: Inhibition of CDK2/cyclin A retinoblastoma kinase activity; type: biochemical; conditions: read-out: Ki CDK 2/A
T1 construct: made in house; host or cells: CDK2: insect cells (baculovirus); cyclin A: E. coli, then limited proteolysis
Description: Cyclin-dependent kinase activity was measured by quantifying the enzyme-catalyzed, time-dependent incorporation of radioactive phosphate from [^32P]ATP or [^33P]ATP into a protein substrate. Unless noted otherwise, assays were performed in 96-well plates in a total volume of 50 μL, in the presence of 10 mM HEPES (N-[2-hydroxyethyl]piperazine-N′-[2-ethanesulfonic acid]) (pH 7.4), 10 mM MgCl2, 25 μM adenosine triphosphate (ATP), 1 mg/mL ovalbumin, 5 μg/mL leupeptin, 1 mM dithiothreitol, 10 mM β-glycerophosphate, 0.1 mM sodium vanadate, 1 mM sodium fluoride, 2.5 mM ethylene glycol-bis(β-aminoethyl ether)-N,N,N′N′-tetraacetic acid (EGTA), 2% (v/v) dimethylsulfoxide, and 0.03-0.4 μCi [^32/33P]ATP per reaction. Reactions were initiated with enzyme, incubated at 30° C., and terminated after 20 minutes by the addition of ethylenediaminetetraacetic acid (EDTA) to 250 mM. The phosphorylated substrate was then captured on a nitrocellulose or phosphocellulose membrane using a 96-well filtration manifold, and unincorporated radioactivity was removed by repeated washing with 0.85% phosphoric acid. Radioactivity was quantified by exposing the dried membranes to a phosphorimager.
(§1) Apparent Ki values were measured by assaying enzyme activity in the presence of different inhibitor compound concentrations and subtracting the background radioactivity measured in the absence of enzyme. The kinetic parameters (kcat, Km for ATP) were measured for each enzyme under the usual assay conditions by determining the dependence of initial rates on ATP concentration. Inhibition data were fit to an equation for competitive inhibition using Kaleidagraph (Synergy Software), or were fit to an equation for competitive tight-binding inhibition using the software KineTic (BioKin, Ltd.).
CDK2 was purified using published methodology (Rosenblatt et al., “Purification and Crystallization of Human Cyclin-dependent Kinase 2,” J. Mol. Biol., vol. 230, 1993, pp. 1317-1319) from insect cells that had been infected with a baculovirus expression vector. […] Purified, proteolyzed cyclin A was included in the assay at a three- to five-fold molar excess to CDK2. Alternatively, a complex of CDK2 and proteolyzed cyclin A was prepared and purified by gel filtration. The substrate for this assay was the same Rb substrate fragment used for the CDK4 assays, and the methodology of the CDK2/cyclin A and the CDK4/cyclin D3 assays was essentially the same, except that CDK2 was present at 150 nM or 5 nM. Ki values were measured as described above.

[2] = biological target: T2, complex of human CDK4 and cyclin D3 (Homo sapiens, UniProt P11802); assay: Inhibition of CDK4/cyclin D retinoblastoma kinase activity (D-type cyclin is D3); type: biochemical; conditions: superscript a: D-type cyclin is D3; apparent Ki; read-out: Ki CDK 4/D
T2 construct: made in house; host or cells: insect cells, co-infected with baculovirus
Description: Cyclin-dependent kinase activity was measured by quantifying the enzyme-catalyzed, time-dependent incorporation of radioactive phosphate from [^32P]ATP or [^33P]ATP into a protein substrate. […] Reactions were initiated with enzyme, incubated at 30° C., and terminated after 20 minutes by the addition of ethylenediaminetetraacetic acid (EDTA) to 250 mM. […] Radioactivity was quantified by exposing the dried membranes to a phosphorimager.
as §1
Phosphorylated Rb substrate was captured by microfiltration on a nitrocellulose membrane and quantified using a phosphorimager as described above. For measurement of tight-binding inhibitors, the enzyme complex concentration was lowered to 5 nM, and the assay duration was extended to 60 minutes, during which the time-dependence of product formation was linear.

T2 sequence (P11802 whole entry): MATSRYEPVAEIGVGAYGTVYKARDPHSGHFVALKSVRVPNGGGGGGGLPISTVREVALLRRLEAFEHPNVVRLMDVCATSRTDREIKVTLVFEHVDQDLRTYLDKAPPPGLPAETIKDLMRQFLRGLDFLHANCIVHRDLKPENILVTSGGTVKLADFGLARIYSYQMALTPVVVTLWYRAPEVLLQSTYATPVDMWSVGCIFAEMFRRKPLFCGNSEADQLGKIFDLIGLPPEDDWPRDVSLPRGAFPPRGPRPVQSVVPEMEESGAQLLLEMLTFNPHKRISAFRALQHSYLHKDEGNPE
T2 sequence (P30281 whole entry partner): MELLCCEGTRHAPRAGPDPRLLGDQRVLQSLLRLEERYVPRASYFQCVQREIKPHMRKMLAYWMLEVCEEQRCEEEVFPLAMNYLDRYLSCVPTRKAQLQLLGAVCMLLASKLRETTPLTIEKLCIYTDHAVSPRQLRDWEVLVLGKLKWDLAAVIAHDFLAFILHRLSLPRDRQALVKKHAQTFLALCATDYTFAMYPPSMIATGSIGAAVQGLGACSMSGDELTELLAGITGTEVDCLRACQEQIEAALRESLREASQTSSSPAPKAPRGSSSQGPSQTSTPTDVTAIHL

Row | SMILES | Ki [1] [µM] | Ki [2] [nM] | Ki ([1]; μM) [µM]
1 | Cc1cccc(-c2ccccc2)c1C(=O)c1sc(Nc2ccc(N3CCOCC3)cc2)nc1N [C(83), [4-Amino-2-(4-morpholin-4-yl-phenylamino)-thiazol-5-yl]-(3-methyl-biphenyl-2-yl)-methanone] | – | 1800 | 32
2 | Nc1nc(Nc2ccc3nc[nH]c3c2)sc1C(=O)[C@@H]1CCCN1C(=O)OCc1ccccc1 [C(64), 2S-[4-Amino-2-(1H-benzoimidazol-5-yl-amino)-thiazole-5-carbonyl]-N-carbobenzyloxy-pyrrolidine] | – | 44000 | 42
3 | Cc1c(C(=O)c2sc(Nc3ccc(S(N)(=O)=O)cc3)nc2N)ncn1C [C(76), 4-[4-Amino-5-(1,5-dimethyl-1H-imidazole-4-carbonyl)-thiazol-2-ylamino]-benzenesulfonamide] | 0.507 | 2000 | –
4 | Cc1ccc(C(=O)c2sc(Nc3ccc(-n4ccnc4)cc3)nc2N)c(C)c1 [C(41), [4-Amino-2-(4-imidazol-1-yl-phenylamino)-thiazol-5-yl]-(2,4-dimethyl-phenyl)-methanone] | 0.336 | 350 | –
5 | Cc1cccc([N+](=O)[O-])c1C(=O)c1sc(Nc2ccc3nc[nH]c3c2)nc1N [C(61), [4-Amino-2-(1H-benzoimidazol-6-ylamino)-thiazol-5-yl]-(2-methyl-6-nitro-phenyl)-methanone] | 1.2 | 120 | –
6 | CC(C)(C)OC(=O)N1CCN(c2ccc(Nc3nc(N)c(C(=O)c4c(Cl)cccc4Cl)s3)cc2)CC1 [C(105), 4-Amino-2-[4-(1-tert-butoxycarbonyl-piperazine-4-yl)-phenylamino]-thiazol-5-yl-(2,6-dichlorophenyl)-methanone] | 1.06 | 60 | –
7 | Nc1nc(Nc2ccc(C(=O)O)cc2)sc1C(=O)c1c(Cl)cccc1Cl [I(25)] | 0.28 | 639 | –
8 | Cc1ccsc1C(=O)c1sc(Nc2ccc(-n3ccnc3)cc2)nc1N [C(42), [4-Amino-2-(4-imidazol-1-yl-phenylamino)-thiazol-5-yl]-(3-methyl-thiophen-2-yl)-methanone] | 0.207 | 750 | –
9 | Cc1ccsc1C(=O)c1sc(Nc2ccc(N3CCN(C(=O)OC(C)(C)C)CC3)cc2)nc1N [C(104), 4-Amino-2-[4-(1-tert-butoxycarbonyl-piperazine-4-yl)-phenylamino]-thiazol-5-yl-(3-methyl-thiophen-2-yl)-methanone] | 0.73 | 190 | –
10 | COc1ccc(C(=O)c2sc(Nc3ccc(N(C)C)cc3)nc2N)cc1 [C(3), [4-Amino-2-(4-dimethylamino-phenylamino)-thiazol-5-yl]-(4-methoxy-phenyl)-methanone] | 4.7 | 1200 | –
11 | Nc1nc(Nc2ccc3nc[nH]c3c2)sc1C(=O)c1cc(Cl)sc1Cl [C(93), [4-Amino-2-(1H-benzoimidazol-6-ylamino)-thiazol-5-yl]-(2,5-dichloro-thiophen-3-yl)-methanone] | 1.04 | 285 | –
12 | CCOC(=O)c1ccc(C(=O)c2sc(Nc3ccc(S(N)(=O)=O)cc3)nc2N)cc1 [C(34), Ethyl 4-[4-Amino-2-(4-sulfamoyl-phenylamino)-thiazole-5-carbonyl]-benzoate] | 0.131 | 140 | –
13 | CC(=O)Nc1ccc(Cl)c(C(=O)c2sc(Nc3ccc(N4CCN(C(=O)OC(C)(C)C)CC4)cc3)nc2N)c1Cl [C(106)] | 1.46 | 134 | –
14 | Cc1cncc(C)c1C(=O)c1sc(Nc2ccc(S(N)(=O)=O)cc2)nc1N [C(59), [4-Amino-2-(4-sulfamoyl-phenylamino)-thiazol-5-yl]-(3,5-dimethyl-pyridin-4-yl)-methanone] | 0.135 | 100 | –
15 | Nc1nc(Nc2ccc(S(N)(=O)=O)cc2)sc1C(=O)c1ccc2c(c1)CCC(=O)N2 [C(51), 4-[4-Amino-5-(2-oxo-1,2,3,4-tetrahydro-quinoline-6-carbonyl)-thiazol-2-ylamino]-benzenesulfonamide] | 0.0333 | 85 | –

More lines, now with the values ahead:

Row | Ki [1] [µM] | Ki [2] [nM] | Ki ([1]; μM) [µM] | SMILES
16 | 0.771 | 27 | – | Cc1cc(C(=O)c2sc(Nc3ccc(N4CCN(C)CC4)cc3)nc2N)c(C)s1 [C(90), {4-Amino-2-[4-(4-methyl-piperazin-1-yl)-phenylamino]-thiazol-5-yl}-(2,5-dimethyl-thiophen-3-yl)-methanone]
17 | 0.259 | 30 | – | Cc1cc(C)c(C(=O)c2sc(Nc3ccc4nc[nH]c4c3)nc2N)c(C)c1 [C(57), [4-Amino-2-(1H-benzoimidazol-6-ylamino)-thiazol-5-yl]-(2,4,6-trimethyl-phenyl)-methanone]
18 | 0.083 | 32 | – | Cc1cc([N+](=O)[O-])sc1C(=O)c1sc(Nc2ccc3nc[nH]c3c2)nc1N [C(78), [4-Amino-2-(1H-benzoimidazol-6-ylamino)-thiazol-5-yl]-(3-methyl-5-nitro-thiophen-2-yl)-methanone]
19 | 0.408 | 23 | – | CC(=O)N1CCN(c2ccc(Nc3nc(N)c(C(=O)c4cc(C)sc4C)s3)cc2)CC1 [C(112), 2-[4-(1-Acetyl-piperazin-4-yl)-phenylamino]-4-amino-thiazol-5-yl-(2,5-dimethyl-thiophen-3-yl)-methanone]
20 | 0.574 | 56 | – | Cc1cccc(C)c1C(=O)c1sc(Nc2ccc3nc[nH]c3c2)nc1N [C(60), [4-Amino-2-(1H-benzoimidazol-6-ylamino)-thiazol-5-yl]-(2,6-dimethyl-phenyl)-methanone]
21 | 1.08 | 23 | – | Nc1nc(Nc2ccc(N3CCOCC3)cc2)sc1C(=O)c1c(Cl)ccc([N+](=O)[O-])c1Cl [C(75), [4-Amino-2-(4-morpholin-4-yl-phenylamino)-thiazol-5-yl]-(2,6-dichloro-3-nitro-phenyl)-methanone]
22 | 0.178 | 23 | – | Nc1ccc(Cl)c(C(=O)c2sc(Nc3ccc4nc[nH]c4c3)nc2N)c1Cl [G, [4-Amino-2-(1H-benzoimidazol-6-ylamino)-thiazol-5-yl]-(3-amino-2,6-dichloro-phenyl)-methanone]
23 | 0.574 | 53 | – | Cc1cccc(Br)c1C(=O)c1sc(Nc2ccc3nc[nH]c3c2)nc1N [C(66), [4-Amino-2-(1H-benzoimidazol-6-ylamino)-thiazol-5-yl]-(2-bromo-6-methyl-phenyl)-methanone]
24 | 1.71 | 72 | – | Cc1cccc(C)c1C(=O)c1sc(Nc2ccc(N3CCOCC3)cc2)nc1N [C(62), [4-Amino-2-(4-morpholin-4-yl-phenylamino)-thiazol-5-yl]-(2,6-dimethyl-phenyl)-methanone]
25 | 0.169 | 13.5 | – | Nc1nc(Nc2ccc3nc[nH]c3c2)sc1C(=O)c1sc(Br)cc1Br [C(72), [4-Amino-2-(1H-benzoimidazol-6-ylamino)-thiazol-5-yl]-(3,5-dibromo-thiophen-2-yl)-methanone]
26 | 0.0094 | 63 | – | Nc1nc(Nc2ccc(S(N)(=O)=O)cc2)sc1C(=O)c1cc(Cl)sc1Cl [C(92), 4-[4-Amino-5-(2,5-dichloro-thiophene-3-carbonyl)-thiazol-2-ylamino]-benzenesulfonamide]
27 | 0.326 | 55 | – | Nc1nc(Nc2ccc3nc[nH]c3c2)sc1C(=O)c1c(Cl)ccc([N+](=O)[O-])c1Cl [C(89), [4-Amino-2-(1H-benzoimidazol-6-ylamino)-thiazol-5-yl]-(2,6-dichloro-3-nitro-phenyl)-methanone]
28 | 0.02 | 57 | – | COc1ccc(C(=O)c2sc(Nc3ccc(S(N)(=O)=O)cc3)nc2N)c(OC)c1 [C(33), 4-[4-Amino-5-(2,4-dimethoxy-benzoyl)-thiazol-2-ylamino]-benzenesulfonamide]
29 | 0.162 | 54 | – | Nc1nc(Nc2ccc3nc[nH]c3c2)sc1C(=O)c1c(F)cccc1F [C(79), [4-Amino-2-(1H-benzoimidazol-6-ylamino)-thiazol-5-yl]-(2,6-difluoro-phenyl)-methanone]
